Laboratory results from publication PMC9653409, “Generative deep learning enables the discovery of a potent and selective RIPK1 inhibitor” (Nature Communications, 2022).
“And” between values parts separate entries of the source, which are not always exact repeats. Equal entries are not always repeated. Where two headings read alike, the source gives them in different places.

Assays:
[1] = test system: kinases that have an inhibitory rate larger than 50%; assay: IC50 against kinases with inhibitory rate larger than 50%; format: biochemical, human; settings: all except MLK3; read-out: IC50 against all other kinases followed up
Method: In vitro kinase activity assays were conducted through the Kinase Profiling Services provided by Eurofins (Eurofins, France). The protocol for the RIPK1 assay is briefly described as follows (Protocols for other kinases are very similar and can be found in http://www.eurofins.com/pharmadiscovery). RIPK1 kinase was incubated with the test compound in assay buffer containing 8 mM MOPS (pH 7.0), 0.2 mM EDTA, 250 μM […], 10 mM magnesium acetate, and 10 μM [γ-33P]-ATP for 15 min at room temperature. The reaction was initiated by the addition of the Mg/ATP mixture. After incubation for 40 min at room temperature, and the reaction was stopped by the addition of 3% phosphoric acid. A 10 μL portion of the reaction mixture was then spotted onto a P30 filter mat and washed four times for 4 min in 0.425% phosphoric acid and once in methanol prior to drying and scintillation counting.

[2] = test system: phosphorylation of RIPK1, RIPK3, and MLKL; assay: Western blot of necroptotic signaling proteins in HT29 cells; format: cell-based, human; settings: HT29, TSZ
Method: Cell pellets were collected and resuspended in RIPA lysis buffer (Beyotime), to which phenylmethylsulfonyl fluoride, a […], and a phosphatase inhibitor cocktail (Sigma) had been added. […] The supernatants were collected and subjected to western blot analysis.
The cell proteins or tissue proteins were separated in a polyacrylamide gel and transferred to a methanol-activated polyvinylidene fluoride membrane. The membrane was blocked for 2 h in Tris-buffered saline plus Tween-20 containing 5% milk and then immunoblotted sequentially with primary and secondary antibodies. Detection was performed with an ECL chemiluminescence kit (Abbkine). […]

[3] = Pharmacokinetics in Sprague-Dawley rats; format: in vivo; settings: for Plasma Concentraion / concentration at 0.083 h / concentration at 0.5 h / concentration at 1 h / concentration at 2 h / concentration at 4 h / concentration at 6 h / concentration at 8 h: animals 1-3; for concentration at 0.083 h / concentration at 0.5 h / concentration at 1 h / concentration at 2 h / concentration at 4 h / concentration at 6 h / concentration at 8 h: read-out: Plasma Concentraion; for MRT inf: read-out: MRT0-∞
Method: The PK properties of compounds were examined in male Sprague-Dawley rats (n = 3 per group, weight: 180–220 g). Compounds were dissolved in saline with 5% (v/v) DMSO plus 40% (v/v) PEG400. The animals were administered with a single dose of 5 mg/kg (intravenous injection (i.v.)), 20 mg/kg (intraperitoneal injection (i.p.) or oral gavage (p.o.)). Blood samples were collected at 0.083, 0.25, 0.5, 1, 2, 4, 6, 8, 10 and 24 h, and centrifuged to isolate plasma. Subsequently, the plasma compound concentrations were determined by LC-MS/MS-13 (TQ5500, SCIEX), and the PK parameters were calculated using Phoenix WinNonlin 7.0.

HT29-vector cells = assay: TSZ-induced necroptosis in HT29-vector cells (CCK8); format: cell-based
Method: Cell necroptosis protection assays were performed in 96-well cell culture plates. Cells were plated in each well and cultured at 37 °C overnight. […] The cell survival rate was determined using a CCK8 cell viability assay kit and CLARIOstar (v5.61). […] All experiments were performed at least two times, and each EC50 value was expressed as mean ± standard deviation (SD).
The lentiCRISPRv2 vector targeting RIPK1 (sgRNA, 5’- […]-3’) was constructed by the Azenta company. HEK 293 T cells were transfected with lentiCRISPRv2 targeting RIPK1 and empty vector using Hieff Trans^TM Liposomal Transfection Reagent (Yeasen), respectively. […] The concentrated viruses were added to HT29 cells along with 8 μg/mL of polybrene (Yeasen) to enhance transfection efficiency. The infection assay was repeated in the next day under the same conditions. Finally, HT29 cells were screened with 3 μg/mL puromycin. Western blot analysis was used to confirm the RIPK1 deletion.

[4] = male, Sprague-Dawley, rat, plasma, ip, 20 mg/kg
[5] = male, Sprague-Dawley, rat, plasma, iv, 5 mg/kg
[6] = male, Sprague-Dawley, rat, plasma, po, 20 mg/kg

CC(C)C(=O)Nc1nc2cc(-c3ccc4c(c3)c(C(=O)NC(C)c3ccccc3)cn4C)ccn2n1 (stereo not shown) [RI-962]
IC50 [1]: > 10000 nM | phosphorylation of RIPK1, RIPK3 and MLKL in intact cells [2]: markedly inhibited the phosphorylation of RIPK1 and its downstream signaling proteins RIPK3 and MLKL in a dose-dependent manner | Plasma Concentraion ([3]; Supplementary Figure 7 panel a, 0.083 h): 11181.2 ng/mL and 13503.2 ng/mL | Plasma Concentraion ([3]; Supplementary Figure 7 panel a, 0.5 h): 2022.7 ng/mL and 2493.56 ng/mL | Plasma Concentraion ([3]; Supplementary Figure 7 panel a, 1 h): 324.429 ng/mL and 368.25 ng/mL | Plasma Concentraion ([3]; Supplementary Figure 7 panel a, 2 h): 53.1161 ng/mL and 49.8208 ng/mL | Plasma Concentraion ([3]; Supplementary Figure 7 panel a, 4 h): 20.793 ng/mL and 12.876 ng/mL | Plasma Concentraion ([3]; Supplementary Figure 7 panel a, 6 h): 12.1272 ng/mL and 7.691 ng/mL | Plasma Concentraion ([3]; Supplementary Figure 7 panel a, 8 h): 5.677 ng/mL and 3.748 ng/mL | Plasma Concentraion ([3]; Supplementary Figure 7 panel b, 0.083 h): 127.196 ng/mL and 183.609 ng/mL | Plasma Concentraion ([3]; Supplementary Figure 7 panel b, 0.5 h): 350.948 ng/mL and 617.101 ng/mL | Plasma Concentraion ([3]; Supplementary Figure 7 panel b, 6 h): 11.7068 ng/mL and 13.5938 ng/mL | Plasma Concentraion ([3]; Supplementary Figure 7 panel b, 8 h): 8.501 ng/mL and 5.3 ng/mL | Plasma Concentraion ([3]; Supplementary Figure 7 panel c, 0.083 h): 841.69 ng/mL and 1224.6 ng/mL | Plasma Concentraion ([3]; Supplementary Figure 7 panel c, 0.5 h): 4149.3 ng/mL and 2823.2 ng/mL | Plasma Concentraion ([3]; Supplementary Figure 7 panel c, 1 h): 3680.1 ng/mL and 2363 ng/mL | Plasma Concentraion ([3]; Supplementary Figure 7 panel c, 2 h): 635.78 ng/mL and 701.71 ng/mL | Plasma Concentraion ([3]; Supplementary Figure 7 panel c, 4 h): 226.7 ng/mL and 115.63 ng/mL | concentration at 0.083 h ([3]; male, Sprague-Dawley, rat, plasma, intraperitoneal, 20 mg/kg, Supplementary Figure 7 panel c, 0.083 h): 1010 ng/mL | concentration at 0.5 h ([3]; male, Sprague-Dawley, rat, plasma, intraperitoneal, 20 mg/kg, Supplementary Figure 7 panel c, 0.5 h): 3840 ng/mL | concentration at 1 h ([3]; male, Sprague-Dawley, rat, plasma, intraperitoneal, 20 mg/kg, Supplementary Figure 7 panel c, 1 h): 3080 ng/mL | concentration at 2 h ([3]; male, Sprague-Dawley, rat, plasma, intraperitoneal, 20 mg/kg, Supplementary Figure 7 panel c, 2 h): 737 ng/mL | concentration at 4 h ([3]; male, Sprague-Dawley, rat, plasma, intraperitoneal, 20 mg/kg, Supplementary Figure 7 panel c, 4 h): 229 ng/mL | concentration at 0.083 h ([3]; male, Sprague-Dawley, rat, plasma, intravenous, 5 mg/kg, Supplementary Figure 7 panel a, 0.083 h): 11800 ng/mL | concentration at 0.5 h ([3]; male, Sprague-Dawley, rat, plasma, intravenous, 5 mg/kg, Supplementary Figure 7 panel a, 0.5 h): 1610 ng/mL | concentration at 1 h ([3]; male, Sprague-Dawley, rat, plasma, intravenous, 5 mg/kg, Supplementary Figure 7 panel a, 1 h): 291 ng/mL | concentration at 2 h ([3]; male, Sprague-Dawley, rat, plasma, intravenous, 5 mg/kg, Supplementary Figure 7 panel a, 2 h): 59.6 ng/mL | concentration at 4 h ([3]; male, Sprague-Dawley, rat, plasma, intravenous, 5 mg/kg, Supplementary Figure 7 panel a, 4 h): 20.6 ng/mL | concentration at 6 h ([3]; male, Sprague-Dawley, rat, plasma, intravenous, 5 mg/kg, Supplementary Figure 7 panel a, 6 h): 11.6 ng/mL | concentration at 8 h ([3]; male, Sprague-Dawley, rat, plasma, intravenous, 5 mg/kg, Supplementary Figure 7 panel a, 8 h): 6.4 ng/mL | AUC(0-inf) [3, 4]: 6610 ± 1120 ng·h/mL | AUC(0-t) [3, 4]: 6460 ng·h/mL | Cmax [3, 4]: 3600 ± 693 ng/mL | Tmax [3, 4]: 0.5 h | bioavailability [3, 4]: 35.7 ± 6.3% | half-life [3, 4]: 8.5 ± 1.6 h | MRT inf [3, 4]: 2.8 ± 0.1 h | AUC(0-inf) [3, 5]: 4540 ± 546 ng·h/mL | AUC(0-t) [3, 5]: 4530 ng·h/mL | Cmax [3, 5]: 12200 ± 1200 ng/mL | Tmax [3, 5]: 0.1 h | clearance [3, 5]: 18.5 ± 2.1 mL/min/kg | half-life [3, 5]: 2.1 ± 0.2 h | MRT inf [3, 5]: 0.4 h | Vd ([3]; male, Sprague-Dawley, rat, plasma, iv, 5 mg/kg, read-out: Vss): 0.4 ± 0.1 L/kg | concentration at 0.083 h ([3]; male, Sprague-Dawley, rat, plasma, oral, 20 mg/kg, Supplementary Figure 7 panel b, 0.083 h): 113 ng/mL | concentration at 0.5 h ([3]; male, Sprague-Dawley, rat, plasma, oral, 20 mg/kg, Supplementary Figure 7 panel b, 0.5 h): 418 ng/mL | concentration at 6 h ([3]; male, Sprague-Dawley, rat, plasma, oral, 20 mg/kg, Supplementary Figure 7 panel b, 6 h): 11.3 ng/mL | concentration at 8 h ([3]; male, Sprague-Dawley, rat, plasma, oral, 20 mg/kg, Supplementary Figure 7 panel b, 8 h): 7.91 ng/mL | AUC(0-inf) [3, 6]: 1600 ± 896 ng·h/mL | AUC(0-t) [3, 6]: 1590 ng·h/mL | Cmax [3, 6]: 674 ± 425 ng/mL | Tmax [3, 6]: 0.8 ± 1 h | half-life [3, 6]: 1.3 ± 0.2 h | MRT inf [3, 6]: 1.8 ± 0.2 h | AUC0–t ([3]; p.o., 20 mg/kg): 1594.9 ± 891.8 ng·h/mL | F (%) ([3]; p.o., 20 mg/kg): 8.8 ± 5.0% | viability at 0.000169 µM (HT29-vector cells; 0.000169 μM + TSZ, read-out: Cell Viability (%) Average): 34.3% | viability at 0.000508 µM (HT29-vector cells; 0.000508 μM + TSZ, read-out: Cell Viability (%) Average): 38.1% | viability at 0.001524 µM (HT29-vector cells; 0.001524 μM + TSZ, read-out: Cell Viability (%) Average): 41.2% | viability at 0.004572 µM (HT29-vector cells; 0.004572 μM + TSZ, read-out: Cell Viability (%) Average): 64.8% | viability at 0.013717 µM (HT29-vector cells; 0.013717 μM + TSZ, read-out: Cell Viability (%) Average): 108% | viability at 0.041152 µM (HT29-vector cells; 0.041152 μM + TSZ, read-out: Cell Viability (%) Average): 109% | viability at 0.123457 µM (HT29-vector cells; 0.123457 μM + TSZ, read-out: Cell Viability (%) Average): 110% | viability at 0.37037 µM (HT29-vector cells; 0.370370 μM + TSZ, read-out: Cell Viability (%) Average): 113% | viability at 1.11111 µM (HT29-vector cells; 1.111111 μM + TSZ, read-out: Cell Viability (%) Average): 102% | EC50 (HT29-vector cells; HT29-vector, TSZ): 4.2 ± 0.2 nM
